According to patent publication US20260274833A1 (NiKang Therapeutics, Inc., priority 2022, published 2026):

Target: T1, CDK2 (Homo sapiens, UniProt P24941)
T1 construct: endogenous in cells; host or cells: OVCAR3 cells
Test: Phospho-RB measurement in OVCAR3 cells (HTRF phospho-RB cellular kit)
Format: cell-based
Settings: inhibition of RB phosphorylation at S807/811 (HTRF, TR-FRET ratio 665/620), 24 h compound treatment, 0.3 to 10,000 nM
Procedure, shortened: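 IC50 came from a four-parameter logistic fit of the DMSO-normalized TR-FRET ratio (665/620 nm). That ratio reflects RB phosphorylation at S807/811, read with an HTRF antibody pair 4 h after adding lysate at room temperature.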

IC50 | Structure (SMILES)
54 nM | CN(C)CCN(C)S(=O)(=O)N1CCC(Nc2nccc(-c3sc(C(C)(C)C)nc3-c3cccc(NS(=O)(=O)N4CCc5ccc(C#N)cc54)c3F)n2)CC1 [Example 122, N-(3-(2-(tert-butyl)-5-(2-((1-(N-(2-(dimethylamino)ethyl)-N-methylsulfamoyl)-piperidin-4-yl)amino)-pyrimidin-4-yl)thiazol-4-yl)-2-fluoro-phenyl)-6-cyanoindoline-1-sulfonamide]
75.2 nM | CN(C)CCN(C)S(=O)(=O)N1CCC(Nc2nccc(-c3sc(C(C)(C)C)nc3-c3cccc(NS(=O)(=O)N4CCc5c(C#N)cccc54)c3F)n2)CC1 [Example 123, N-(3-(2-(tert-butyl)-5-(2-((1-(N-(2-(dimethylamino)ethyl)-N-methylsulfamoyl)-piperidin-4-yl)amino)-pyrimidin-4-yl)thiazol-4-yl)-2-fluoro-phenyl)-4-cyanoindoline-1-sulfonamide]
151 nM | CC(C)(C)c1nc(-c2cccc(NS(=O)(=O)N3CCc4c(C#N)cccc43)c2F)c(-c2ccnc(NC3CCN(S(=O)(=O)N4CCNCC4)CC3)n2)s1 [Example 124, N-(3-(2-(tert-butyl)-5-(2-((1-(piperazin-1-ylsulfonyl)piperidin-4-yl)amino)-pyrimidin-4-yl)thiazol-4-yl)-2-fluoro-phenyl)-4-cyanoindoline-1-sulfonamide]
204 nM | CN1CCN(S(=O)(=O)N2CCC(Nc3nccc(-c4sc(C(C)(C)C)nc4-c4cccc(NS(=O)(=O)N5CCc6c(C#N)cccc65)c4F)n3)CC2)CC1 [Example 125, N-(3-(2-(tert-butyl)-5-(2-((1-((4-methyl-piperazin-1-yl)sulfonyl)piperidin-4-yl)amino)-pyrimidin-4-yl)thiazol-4-yl)-2-fluorophenyl)-4-cyanoindoline-1-sulfonamide]
366 nM | CC(C)(C)c1nc(-c2cccc(NS(=O)(=O)N3Cc4ccncc4C3)c2F)c(-c2ccnc(NC3CCN(S(=O)(=O)N4CCNCC4)CC3)n2)s1 [Example 126, N-(3-(2-(tert-butyl)-5-(2-((1-(piperazin-1-ylsulfonyl)piperidin-4-yl)amino)-pyrimidin-4-yl)thiazol-4-yl)-2-fluorophenyl)-1,3-dihydro-2H-pyrrolo[3,4-c] pyridine-2-sulfonamide]
208 nM | CN1CCN(S(=O)(=O)N2CCC(Nc3nccc(-c4sc(C(C)(C)C)nc4-c4cccc(NS(=O)(=O)N5Cc6cccnc6C5)c4F)n3)CC2)CC1 [Example 127, N-(3-(2-(tert-butyl)-5-(2-((1-((4-methyl-piperazin-1-yl)sulfonyl)piperidin-4-yl)amino)-pyrimidin-4-yl)thiazol-4-yl)-2-fluorophenyl)-5,7-dihydro-6H-pyrrolo[3,4-b] pyridine-6-sulfonamide]
162 nM | CN1CCN(S(=O)(=O)N2CCC(Nc3nccc(-c4sc(C(C)(C)C)nc4-c4cccc(NS(=O)(=O)N5Cc6ccncc6C5)c4F)n3)CC2)CC1 [Example 128, N-(3-(2-(tert-butyl)-5-(2-((1-((4-methylpiperazin-1-yl)sulfonyl)piperidin-4.yl)-amino)pyrimidin~4-yl)thiazol-4-yl)-2-fluorophenyl)-1,3-dihydro-2H-pyrrolo[3,4-c]-pyridine-2-sulfonamide]
328 nM | CC(C)(C)c1nc(-c2cccc(NS(=O)(=O)N3CCNc4ccccc43)c2F)c(-c2ccnc(NC3CCN(S(=O)(=O)N4CCNCC4)CC3)n2)s1 [Example 129, N-(3-(2-(tert-butyl)-5-(2-((1-(piperazin-1-ylsulfonyl)piperidin-4-yl)amino)-pyrimidin-4-yl)thiazol-4-yl)-2-fluoro-phenyl)-3,4-dihydroquinoxaline-1(2H)-sulfonamide]
268 nM | C[C@@H]1c2ccccc2CN1S(=O)(=O)Nc1cccc(-c2nc(C(C)(C)C)sc2-c2ccnc(NC3CCN(S(C)(=O)=O)CC3)n2)c1F [Example 130, (R)-N-(3-(2-(tert-butyl)-5-(2-((1-(methyl-sulfonyl)piperidin-4-yl)amino)-pyrimidin-4-yl)thiazol-4-yl)-2-fluoro-phenyl)-1-methyliso-indoline-2-sulfonamide]
160 nM | C[C@H]1c2ccccc2CN1S(=O)(=O)Nc1cccc(-c2nc(C(C)(C)C)sc2-c2ccnc(NC3CCN(S(C)(=O)=O)CC3)n2)c1F [Example 131, (S)-N-(3-(2-(tert-butyl)-5-(2-((1-(methyl-sulfonyl)piperidin-4-yl)amino)pyrimidin-4-yl)thiazol-4-yl)-2-fluoro-phenyl)-1-methyliso-indoline-2-sulfonamide]
310 nM | CC(C)(C)c1nc(-c2cccc(NS(=O)(=O)N3Cc4cccnc4C3)c2F)c(-c2ccnc(NC3CCN(S(=O)(=O)N4CCNCC4)CC3)n2)s1 [Example 132, N-(3-(2-(tert-butyl)-5-(2-((1-(piperazin-1-ylsulfonyl)piperidin-4-yl)amino)-pyrimidin-4-yl)thiazol-4-yl)-2-fluoro-phenyl)-5,7-dihydro-6H-pyrrolo[3,4-b]-pyridine-6-sulfonamide]
331 nM | CN(C)Cc1cccc2c1CCN2S(=O)(=O)Nc1cccc(-c2nc(C(C)(C)C)sc2-c2ccnc(NC3CCN(S(C)(=O)=O)CC3)n2)c1F [Example 133, N-(3-(2-(tert-butyl)-5-(2-((1-(methylsulfonyl)-piperidin-4-yl)amino)-pyrimidin-4-yl)thiazol-4-yl)-2-fluoro-phenyl)-4-((dimethylamino)methyl)-indoline-1-sulfonamide]
589 nM | CNCc1cccc2c1CCN2S(=O)(=O)Nc1cccc(-c2nc(C(C)(C)C)sc2-c2ccnc(NC3CCN(S(C)(=O)=O)CC3)n2)c1F [Example 134, N-(3-(2-(tert-butyl)-5-(2-((1-(methylsulfonyl)-piperidin-4-yl)amino)-pyriidin-4-yl)thiazol-4-yl)-2-fluoro-phenyl)-4-((methylamino)methyl)-indoline-1-sulfonamide]
474 nM | CN(C)CCN(C)S(=O)(=O)N1CCC(Nc2nccc(-c3sc(C(C)(C)C)nc3-c3cccc(NS(=O)(=O)N(C)C)c3F)n2)CC1 [Example 135, 4-((4-(2-(tert-butyl)-4-(3-((N,N-dimethyl-sulfamoyl)amino)-2-fluoro-phenyl)thiazol-5-yl)pyrimidin-2-yl)amino)-N-(2-(dimethyl-amino)ethyl)-N-methylpiperidine-1-sulfonamide]
1490 nM | CC(C)(C)c1nc(-c2cccc(NS(=O)(=O)N3CCOc4ccccc43)c2F)c(-c2ccnc(NC3CCN(S(=O)(=O)N4CCNCC4)CC3)n2)s1 [Example 136, N-(3-(2-(tert-butyl)-5-(2-((1-(piperazin-1-ylsulfonyl)piperidin-4-yl)amino)-pyrimidin-4-yl)thiazol-4-yl)-2-fluorophenyl)-2,3-dihydro-4H-benzo[b][1,4] oxazine-4-sulfonamide]
286 nM | CN1CCN(S(=O)(=O)Nc2cccc(-c3nc(C(C)(C)C)sc3-c3ccnc(NC4CCN(S(C)(=O)=O)CC4)n3)c2F)Cc2ccccc21 [Example 137, N-(3-(2-(tert-butyl)-5-(2-((1-(methylsulfonyl)-piperidin-4-yl)amino)-pyrimidin-4-yl)thiazol-4-yl)-2-fluoro-phenyl)-1-methyl-1,2,3,5-tetrahydro-4H-benzo[e][1,4] diazepine-4-sulfonamide]
396 nM | CN1CCN(S(=O)(=O)N2CCC(Nc3nccc(-c4sc(C(C)(C)C)nc4-c4cccc(NS(=O)(=O)N5CCNc6ccccc6C5)c4F)n3)CC2)CC1 [Example 138, N-(3-(2-(tert-butyl)-5-(2-((1-((4-methylpiperazin-1-yl)sulfonyl)piperidin-4-yl)amino)pyrimidin-4-yl)thiazol-4-yl)-2~fluorophenyl)-1,2,3,5-tetrahydro-4H-benzo[e][1,4] diazepine-4-sulfonamide]
291 nM | CN(C)CCN(C)S(=O)(=O)N1CCC(Nc2nccc(-c3sc(C(C)(C)C)nc3-c3cccc(NS(=O)(=O)N4CCNc5ccccc5C4)c3F)n2)CC1 [Example 139, N-(3-(2-(tert-butyl)-5-(2-((1-(N-(2-(dimethyl-amino)ethyl)-N-methyl-sulfamoyl)piperidin-4-yl)amino)-pyrimidin-4-yl)thiazol-4-yl)-2-fluoro-phenyl)-1,2,3,5-tetrahydro-4H-benzo[e][1,4] diazepine-4-sulfonamide]
622 nM | C[C@@H]1Cc2ccccc2N1S(=O)(=O)Nc1cccc(-c2nc(C(C)(C)C)sc2-c2ccnc(NC3CCN(S(=O)(=O)N4CCNCC4)CC3)n2)c1F [Example 140, (R)-N-(3-(2-(tert-butyl)-5-(2-((1-(piperazin-1-ylsulfonyl)piperidin-4-yl)amino)pyrimidin-4-yl)thiazol-4-yl)-2-fluorophenyl)-2-methyl-indoline-1-sulfonamide]
291 nM | CC(C)(C)c1nc(-c2cccc(NS(=O)(=O)N3CCc4ncccc43)c2F)c(-c2ccnc(NC3CCN(S(C)(=O)=O)CC3)n2)s1 [Example 141, N-(3-(2-(tert-butyl)-5-(2-((1-(methylsulfonyl)-piperidin-4-yl)amino)-pyrimidin-4-yl)thiazol-4-yl)-2-fluoro-phenyl)-2,3-dihydro-1H-pyrrolo [3,2-b]-pyridine-1-sulfonamide]
341 nM | CN(C)Cc1ccc2c(c1)N(S(=O)(=O)Nc1cccc(-c3nc(C(C)(C)C)sc3-c3ccnc(NC4CCN(S(C)(=O)=O)CC4)n3)c1F)CC2 [Example 142, N-(3-(2-(tert-butyl)-5-(2-((1-(methylsulfonyl)-piperidin-4-yl)amino)-pyrimidin-4-yl)thiazol-4-yl)-2-fluoro-phenyl)-6-((dimethylamino)-methyl)-indoline-1-sulfonamide]
136 nM | COc1cccc2c1CN(S(=O)(=O)Nc1cccc(-c3nc(C(C)(C)C)sc3-c3ccnc(NC4CCN(S(=O)(=O)N5CCNCC5)CC4)n3)c1F)C2 [Example 143, N-(3-(2-(tert-butyl)-S-(2-((1-(piperazin-1-ylsulfonyl)piperidin-4-yl)amino)-pyrimidin-4-yl)thiazol-4-yl)-2-fluoro-phenyl)-4-methoxy-isoindoline-2-sulfonamide]
